Data on five compounds can be found in US20160024051A1, “SALTS AND SOLID FORMS OF ISOQUINOLINONES AND COMPOSITION COMPRISING AND METHODS OF USING THE SAME” (INFINITY PHARMACEUTICALS, INC., priority 2013, published 2016).

Data set [1] in a line: PK evaluation in CD-1 mouse. The format is in vivo. The protocol: (§1) For example, Compound 1 bis-hydrogen sulfate monohydrate was evaluated in CD-1 mouse, Wistar rat, Cyno monkey, and Beagle dog. Cross species allometric scaling of CL (drug clearance) and Vss (volume at steady state) predicts low CL, high Vss and long T112 for Compound 1 in humans.
Data set [2] in a line: PK evaluation in Wistar rat. The format is in vivo. As to the method: as §1
Data set [3] in a line: PK evaluation in Cyno monkey. It counts as in vivo. The protocol:
as §1

Data set [4] is described as follows: PK evaluation in Beagle dog. The format is in vivo. The protocol: as §1
Data set [5] can be described thus: Storage at 40° C./75% RH (elevated humidity) for 1 week, re-analysis by XRPD/HPLC.
Procedure: The crystalline solids were filtered, dried at ambient conditions, and stored at 40° C./75% RH for 1 week and analyzed by ^1H NMR/IC.
Samples from the screen using amorphous free base Compound 1 were analysed by ^1H-NMR and DSC, and re-analysis by XRPD was also carried out after drying at 50° C./vacuum and storage at 40° C./75% RH (the same sample was dried and stored at elevated humidity).
Data set [6] is described as follows: Thermodynamic aqueous solubility. The format is physicochemical.
The nature of data set [7]: Gravimetric vapour sorption (GVS). It counts as physicochemical. As to the method:
Sorption isotherms were obtained using a Hiden IGASorp moisture sorption analyser, controlled by CFRSorp software. The sample temperature was maintained at 25° C. by a Huber re-circulating water bath. The humidity was controlled by mixing streams of dry and wet nitrogen, with a total flow rate of 250 ml/min. The relative humidity (RH) was measured by a calibrated Vaisala RH probe (dynamic range of 0-95% RH), located near the sample. The weight change, (mass relaxation) of the sample as a function of % RH was constantly monitored by the microbalance (accuracy ±0.001 mg). Typically 10-20 mg of sample was placed in a tared mesh stainless steel basket under ambient conditions. The sample was loaded and unloaded at 40% RH and 25° C. (typical room conditions). A moisture sorption isotherm was performed as outlined below (2 scans giving 1 complete cycle). The standard isotherm was performed at 25° C. at 10% RH intervals over a 0-90% RH range.
The software uses a least squares minimisation procedure together with a model of the mass relaxation, to predict an asymptotic value. The measured mass relaxation value must be within 5% of that predicted by the software, before the next % RH value is selected. The minimum equilibration time was set to 1 hour and the maximum to 4 hours. The sample was recovered after completion of the isotherm and re-analysed by XRPD.

Data set [8] is described as follows: Storage at 25° C./93% RH for 1 week, re-analysis by XRPD/HPLC. It counts as physicochemical. The following applies: for stability on storage at 25° C./93% RH: 1 week.
Data set [9] in a line: Polymorphism study: maturation (temperature cycling RT to 50° C.) in solvents, XRPD. The format is physicochemical. The following applies: three days. The protocol: One of 21 solvents was added to each vial in a number of aliquots (up to 30 volumes), with shaking. All the samples were then placed under maturation between RT to 50° C. (4 hours at each temperature) for 3 days. After maturation the samples were analysed by XRPD. Clear solutions were cooled to −20° C. (freezer). If no precipitation occurred samples were evaporated at RT.
Samples were placed under maturation between RT-50° C. (4 hours cycle) for 3 days. After maturation the samples were analyzed by XRPD. Clear solutions were then cooled to −20° C. (freezer). If no precipitation occurred, samples were evaporated at RT.
The corresponding solvents and solvent mixtures were added in portions of (a total of) 5, 10, 20, and 30 volumes at 50° C., with shaking, aiming for clear solutions. After each addition, the vials were allowed to shake for 20 minutes, after which observations were made. Solutions were allowed to evaporate, whereas slurries were set for 8 hour temperature cycling maturation, between RT and 50° C., for 5 days.
The oils obtained by solvent evaporation were used for the maturation screen. Anhydrous solvents (5 volumes; 100 μL) were used in order to minimise the amount of water present. Any solutions were allowed to slowly evaporate, whereas slurries were set for 8 hour temperature cycling maturation, between RT and 50° C. […] These were matured for a further 24 hours before performing XRPD analysis.
The selected solvents and solvent mixtures (5 to 20 volumes) were added with stirring. Any solutions were allowed to slowly evaporate, whereas slurries were set for 8 hour temperature cycling maturation, between RT and 50° C., for 2 days.
Crystals were ground in order to analyse them by XRPD. Suspensions were set for temperature cycling for a total of five days after which time XRPD analysis was carried out.

Data set [10] can be described thus: Stability of Hydrate Form 2: maturation in water or acetic acid: water 1:3 at constant temperature. The format is physicochemical. As to conditions: 40 hours maturation. As to the method: Both solids obtained from maturation at 25° C.

As to `COc1cc(-c2cccc3cc([C@H](C)Nc4nc(N)ncc4C#N)n(-c4ccccc4)c(=O)c23)ccn1.O.O=S(=O)(O)O.O=S(=O)(O)O`, the AUClast was 1012 ng·h/mL in data set [1] (IV, 5 mg/kg); 856 ng·h/mL in [1] (PO, 10 mg/kg); 2061 ng·h/mL in data set [2] (IV, 2 mg/kg); 5968 ng·h/mL in [2] (PO, 10 mg/kg); 2534 ng·h/mL in data set [3] (IV, 1 mg/kg); 12790 ng·h/mL in data set [3] (PO, 5 mg/kg). The AUClast in [4] (IV, 1 mg/kg) came out at 4746 ng·h/mL; in data set [4] (PO, 5 mg/kg) it was 17626 ng·h/mL. Moreover, the Cl in [1] (IV, 5 mg/kg) came to 82 mL/min/kg; in data set [2] (IV, 2 mg/kg) it was 17 mL/min/kg; in [3] (IV, 1 mg/kg), 6.5 mL/min/kg; in data set [4] (IV, 1 mg/kg) it was 2.5 mL/min/kg. Further, the Cmax (commonly the highest concentration seen after dosing) in data set [1] (IV, 5 mg/kg) is on record as 1417 ng/mL; in data set [1] (PO, 10 mg/kg), 647 ng/mL; in data set [2] (IV, 2 mg/kg), 799 ng/mL; in data set [2] (PO, 10 mg/kg), 787 ng/mL; in data set [3] (IV, 1 mg/kg), 581 ng/mL; in [3] (PO, 5 mg/kg), 2365 ng/mL. Further, the Cmax worked out at 424 ng/mL in data set [4] (IV, 1 mg/kg) and 1830 ng/mL in [4] (PO, 5 mg/kg). Moreover, the T1/2 in data set [1] (IV, 5 mg/kg) was 0.6 h; in data set [1] (PO, 10 mg/kg), 1.7 h; in data set [2] (IV, 2 mg/kg) it was 2.3 h; in data set [2] (PO, 10 mg/kg), 3.3 h; in [3] (IV, 1 mg/kg) it was 4.1 h; in [3] (PO, 5 mg/kg), 4.0 h. Besides, the T1/2 in data set [4] (IV, 1 mg/kg) stood at 14.6 h; in [4] (PO, 5 mg/kg), 8.0 h. The Vss (usually the apparent volume that relates the amount in the body to the concentration in plasma or blood) in data set [1] (IV, 5 mg/kg) was found to be 2.3 L/kg; in data set [2] (IV, 2 mg/kg), 2.4 L/kg; in data set [3] (IV, 1 mg/kg) it was 1.6 L/kg; in data set [4] (IV, 1 mg/kg), 2.9 L/kg. Moreover, the Foral in data set [1] (PO, 10 mg/kg) amounted to 45%; in data set [2] (PO, 10 mg/kg), 58%; in data set [3] (PO, 5 mg/kg) it was 100%; in data set [4] (PO, 5 mg/kg), 74%. In addition, the Tmax (in general, the time at which the peak concentration occurs) in data set [1] (PO, 10 mg/kg) worked out at 0.25 h; in data set [2] (PO, 10 mg/kg) it was 1.3 h; in [3] (PO, 5 mg/kg), 2 h; in [4] (PO, 5 mg/kg) it was 2.3 h.

As to `COc1cc(-c2cccc3cc([C@H](C)Nc4nc(N)ncc4C#N)n(-c4ccccc4)c(=O)c23)ccn1`, in [5] (salts scaled-up at 0.5 gram), the “Storage 40° C./75% RH for 1 week: HPLC Purity” value is recorded as “HPLC Purity: Unchanged” and the “Storage 40° C./75% RH for 1 week: XRPD (D8)” value is recorded as “XRPD (D8): Unchanged”. For the same compound, the “XRPD (C2) post Aqueous solubility” value in data set [6] (residual solid) is “Low cryst. 1,2-ethanedisulfonic”. The “Thermodynamic aqueous solubility” value in data set [6] (salts scaled-up at 0.5 gram, listed as 1-2-Ethanedisulfonic acid) came out at 6200 µg/mL. The “XRPD post GVS (C2)” value in data set [7] is on record as “Unchanged”. The “GVS Single cycle” value in data set [7] (hygroscopicity in words, 25° C., listed as 1-2-Ethanedisulfonic acid) is on record as “Moderately hygroscopic”. Further, in data set [8] (salts scaled-up at 0.5 gram), the “Storage 25° C./93% RH for 1 week: HPLC Purity” value is on record as “HPLC Purity: Unchanged” and the “Storage 25° C./93% RH for 1 week: XRPD (D8)” value is reported as “XRPD (D8): Unchanged”.

For the compound `COc1cc(-c2cccc3cc([C@H](C)Nc4nc(N)ncc4C#N)n(-c4ccccc4)c(=O)c23)ccn1` [Form 1 of the free base of Compound 1], the “Stability at 40° C./75% RH” value in data set [5] (1 week, form) is listed as “No changes in form after 1 week”. This compound yielded a Thermodynamic aqueous solubility in [6] (at pH 6.85) of 4 µg/mL. For the same compound, in data set [7], the “GVS: moisture on loading” value is given as 0.7 % w/w. Also, the “GVS behaviour (hydration / desolvation)” value in data set [7] (listed as Free base Form 1) was “hydrates to a higher hydrate above 80% RH”. Also, in data set [7] (with hysteresis on desorption), the “GVS: uptake between 80-90% RH” value turned out to be 4.0 % w/w. Moreover, the “XRPD form after maturation in acetic acid: water 1:1” value in [9] (listed as hydrate Form 1 of free base Compound 1) is given as “Form 6”. In addition, the “stability on storage at 25° C./93% RH” value in [8] was “converts to Form 3 of the free base of Compound 1”; in data set [8] (listed as Free base Form 1), “conversion to Form 3”. Moreover, the “Stability at 25° C./93% RH” value in data set [8] (form) was “Conversion to Form 3 (FIG. 31)”.

`COc1cc(-c2cccc3cc([C@H](C)Nc4nc(N)ncc4C#N)n(-c4ccccc4)c(=O)c23)ccn1.O` [Form 2 of free base of Compound 1]: the XRPD entry in data set [10] (Acetic acid:water 1:3, 25° C.) is “Hydrate Form 2”; in data set [10] (Water, 25° C.) it was “Hydrate Form 2”; in [10] (Water, 90° C.) it was “Hydrate Form 2”.

For `COc1cc(-c2cccc3cc([C@H](C)Nc4nc(N)ncc4C#N)n(-c4ccccc4)c(=O)c23)ccn1` [amorphous free base of Compound 1], the “Stability at 40° C./75% RH” value in data set [5] (after 1 week, XRPD) is on record as “No changes after 1 week”. Moreover, the “solid form after storage at elevated humidity” value in data set [5] (elevated humidity conditions, not specified in the sentence) is “No crystallisation”. The “XRPD form after maturation in acetic acid: water 1:1” value in [9] (listed as amorphous material) is reported as “Form 6”. For the same compound, in data set [8] (after 1 week, XRPD), the “Stability at 25° C./93% RH” value was “No changes after 1 week”.
